“And” between values parts separate entries of the source, which are not always exact repeats. Equal values may be shown once. Toxic doses and inconclusive results are not listed. Rule as the data show it: active = T/C of 150% or more; inactive = T/C below 125%.
System: L1210 leukemia ip in BDF1 mice, survival T/C
Assay: NCI In Vivo Anticancer Drug Screen. Data for tumor model L1210 Leukemia (intraperitoneal) in B6D2F1 (BDF1) mice
Details: endpoint: mean survival time, higher = longer survival
In short: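 Antitumor effect is assessed in tumor-bearing animals. Survival in the compound arm is compared with a vehicle-dosed control arm and expressed as their quotient.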

[1] = dose: 100.0 mg/kg/injection, schedule: Q01DX001 (ip), vehicle: saline
[2] = dose: 200.0 mg/kg/injection, schedule: Q01DX001 (ip), vehicle: saline
[3] = dose: 400.0 mg/kg/injection, schedule: Q01DX001 (ip), vehicle: saline
[4] = dose: 100.0 mg/kg/injection, schedule: Q04DX002 (ip), vehicle: saline with Tween-80
[5] = dose: 200.0 mg/kg/injection, schedule: Q04DX002 (ip), vehicle: saline with Tween-80
[6] = dose: 400.0 mg/kg/injection, schedule: Q04DX002 (ip), vehicle: saline with Tween-80
[7] = dose: 100.0 mg/kg/injection, schedule: Q01DX009 (ip), vehicle: saline
[8] = dose: 100.0 mg/kg/injection, schedule: Q04DX003 (ip), vehicle: saline
[9] = dose: 200.0 mg/kg/injection, schedule: Q04DX003 (ip), vehicle: saline
[10] = dose: 400.0 mg/kg/injection, schedule: Q04DX003 (ip), vehicle: saline
[11] = dose: 100.0 mg/kg/injection, schedule: Q01DX009 (ip), vehicle: Klucel (hydroxypropylcellulose) (HPC)
[12] = dose: 200.0 mg/kg/injection, schedule: Q01DX009 (ip), vehicle: Klucel (hydroxypropylcellulose) (HPC)
[13] = dose: 400.0 mg/kg/injection, schedule: Q01DX009 (ip), vehicle: Klucel (hydroxypropylcellulose) (HPC)

Measured: T/C

O=P1(Nc2ccccc2)OCCCN1Cc1ccc(Cl)c(Cl)c1 (stereo not drawn)
inactive: dose: 50.0 mg/kg/injection, schedule: Q01DX001 (ip), vehicle: saline 96 % of control | [1] 102 % of control | [2] 90 % of control | [3] 102 % of control

Nc1nc(N)nc(CCc2nc(N)nc(N)n2)n1
inactive: dose: 50.0 mg/kg/injection, schedule: Q01DX001 (ip), vehicle: carboxymethylcellulose (CMC) 95 % of control | dose: 100.0 mg/kg/injection, schedule: Q01DX001 (ip), vehicle: carboxymethylcellulose (CMC) 90 % of control | dose: 200.0 mg/kg/injection, schedule: Q01DX001 (ip), vehicle: carboxymethylcellulose (CMC) 87 % of control | dose: 400.0 mg/kg/injection, schedule: Q01DX001 (ip), vehicle: carboxymethylcellulose (CMC) 92 % of control

COc1cc(C(=O)NC(=S)Nc2ccc3ccccc3c2)cc(OC)c1OC
inactive: [4] 91 % of control | [5] 97 % of control | [6] 91 % of control

CCOC(=O)C1=C(C)NC(C)=C(C(=O)OCC)C1c1cccc([N+](=O)[O-])c1
inactive: dose: 100.0 mg/kg/injection, schedule: Q04DX003 (ip), vehicle: Klucel (hydroxypropylcellulose) (HPC) 100 % of control | dose: 200.0 mg/kg/injection, schedule: Q04DX003 (ip), vehicle: Klucel (hydroxypropylcellulose) (HPC) 105 % of control | dose: 400.0 mg/kg/injection, schedule: Q04DX003 (ip), vehicle: Klucel (hydroxypropylcellulose) (HPC) 108 % of control

COC(=O)C1C2CC3c4[nH]c5cc(OC)ccc5c4CCN3CC2CC(OC)C1OC (stereo not drawn)
inactive: dose: 0.78 mg/kg/injection, schedule: Q03HX024 (ip), vehicle: saline 104 % of control | dose: 1.56 mg/kg/injection, schedule: Q03HX024 (ip), vehicle: saline 96 % of control | dose: 2.0 mg/kg/injection, schedule: Q01DX009 (ip), vehicle: saline 93 % of control | dose: 3.12 mg/kg/injection, schedule: Q03HX024 (ip), vehicle: saline 100 % of control | dose: 4.0 mg/kg/injection, schedule: Q01DX009 (ip), vehicle: saline 94 % of control | dose: 6.25 mg/kg/injection, schedule: Q03HX024 (ip), vehicle: saline 110 % of control | dose: 6.25 mg/kg/injection, schedule: Q04DX003 (ip), vehicle: saline 95 % of control | dose: 8.0 mg/kg/injection, schedule: Q01DX009 (ip), vehicle: saline 88 % of control | dose: 12.5 mg/kg/injection, schedule: Q04DX003 (ip), vehicle: saline 97 % of control | dose: 16.0 mg/kg/injection, schedule: Q01DX009 (ip), vehicle: saline 89 % of control | dose: 18.75 mg/kg/injection, schedule: Q01DX001 (ip), vehicle: saline 102 % of control | dose: 25.0 mg/kg/injection, schedule: Q04DX003 (ip), vehicle: saline 102 % of control | dose: 32.0 mg/kg/injection, schedule: Q01DX009 (ip), vehicle: saline 96 % of control | dose: 37.5 mg/kg/injection, schedule: Q01DX001 (ip), vehicle: saline 112 % of control | dose: 50.0 mg/kg/injection, schedule: Q04DX003 (ip), vehicle: saline 105 % of control and 122 % of control | dose: 75.0 mg/kg/injection, schedule: Q01DX001 (ip), vehicle: saline 112 % of control

O=C1c2cccc3c(Br)ccc(c23)C(=O)N1C1CCCCCCCCCCC1
inactive: dose: 100.0 mg/kg/injection, schedule: Q01DX009 (ip), vehicle: saline with Tween-80 97 % of control | dose: 200.0 mg/kg/injection, schedule: Q01DX009 (ip), vehicle: saline with Tween-80 90 % of control

Nc1ccn(CCCOc2ccccc2)c(=O)n1
inactive: dose: 100.0 mg/kg/injection, schedule: Q01DX001 (ip), vehicle: saline with Tween-80 97 % of control | dose: 200.0 mg/kg/injection, schedule: Q01DX001 (ip), vehicle: saline with Tween-80 96 % of control | dose: 400.0 mg/kg/injection, schedule: Q01DX001 (ip), vehicle: saline with Tween-80 100 % of control

O=C1c2ccccc2C(=O)c2c(O)c(N3CCOCC3)cc(O)c21
inactive: dose: 0.25 mg/kg/injection, schedule: Q04DX003 (ip), vehicle: water 90 % of control | dose: 0.5 mg/kg/injection, schedule: Q04DX003 (ip), vehicle: water 102 % of control | dose: 1.0 mg/kg/injection, schedule: Q04DX003 (ip), vehicle: water 110 % of control | dose: 2.0 mg/kg/injection, schedule: Q04DX003 (ip), vehicle: water 100 % of control | dose: 4.0 mg/kg/injection, schedule: Q04DX003 (ip), vehicle: water 102 % of control | dose: 8.0 mg/kg/injection, schedule: Q04DX003 (ip), vehicle: water 100 % of control | dose: 16.0 mg/kg/injection, schedule: Q04DX003 (ip), vehicle: saline 102 % of control | dose: 16.0 mg/kg/injection, schedule: Q04DX003 (ip), vehicle: water 100 % of control | dose: 32.0 mg/kg/injection, schedule: Q04DX003 (ip), vehicle: saline 110 % of control | dose: 64.0 mg/kg/injection, schedule: Q04DX003 (ip), vehicle: saline 102 % of control

Cc1nccnc1N
inactive: dose: 25.0 mg/kg/injection, schedule: Q01DX009 (ip), vehicle: saline 112 % of control | dose: 50.0 mg/kg/injection, schedule: Q01DX009 (ip), vehicle: saline 110 % of control | [7] 95 % of control and 108 % of control | [8] 98 % of control | [9] 109 % of control | [10] 102 % of control

c1cc2c(c(NC3=NCCCO3)c1)CCCC2
inactive: dose: 12.5 mg/kg/injection, schedule: Q01DX009 (ip), vehicle: saline with Tween-80 95 % of control | dose: 25.0 mg/kg/injection, schedule: Q01DX009 (ip), vehicle: saline with Tween-80 106 % of control | dose: 50.0 mg/kg/injection, schedule: Q01DX009 (ip), vehicle: saline with Tween-80 106 % of control | dose: 50.0 mg/kg/injection, schedule: Q04DX003 (ip), vehicle: saline with Tween-80 101 % of control

CC(=O)Nc1ccc(C(=O)C(O)c2ccc(NC(C)=O)cc2)cc1 (stereo not drawn)
inactive: dose: 50.0 mg/kg/injection, schedule: Q01DX001 (ip), vehicle: other 100 % of control | dose: 100.0 mg/kg/injection, schedule: Q01DX001 (ip), vehicle: other 92 % of control | dose: 200.0 mg/kg/injection, schedule: Q01DX001 (ip), vehicle: other 105 % of control | dose: 400.0 mg/kg/injection, schedule: Q01DX001 (ip), vehicle: other 88 % of control

COc1ccccc1C(=O)N/N=C(\C)c1cccc2ccccc12
inactive: [11] 108 % of control | [12] 110 % of control | [13] 96 % of control

O=C(O)c1ccc(F)c(F)c1F
inactive: dose: 100.0 mg/kg/injection, schedule: Q04DX002 (ip), vehicle: other 121 % of control | dose: 200.0 mg/kg/injection, schedule: Q04DX002 (ip), vehicle: other 115 % of control

CC1=C/C(=N/NC(N)=O)CC(C)(C)C1
inactive: [1] 93 % of control | [2] 93 % of control | [3] 98 % of control

Cc1ccc(S(=O)(=O)N2CCN(C)CC2)cc1
inactive: [1] 103 % of control | [2] 97 % of control | [3] 97 % of control

O=C(CSc1ncc2ccccn12)c1ccccc1
inactive: [4] 106 % of control | [5] 92 % of control | [6] 95 % of control

Cc1ccccc1NC(=O)Nc1ccc(S(N)(=O)=O)cc1
inactive: [11] 104 % of control | dose: 100.0 mg/kg/injection, schedule: Q04DX002 (ip), vehicle: Klucel (hydroxypropylcellulose) (HPC) 86 % of control | [12] 101 % of control | dose: 200.0 mg/kg/injection, schedule: Q04DX002 (ip), vehicle: Klucel (hydroxypropylcellulose) (HPC) 93 % of control | [13] 112 % of control | dose: 400.0 mg/kg/injection, schedule: Q04DX002 (ip), vehicle: Klucel (hydroxypropylcellulose) (HPC) 86 % of control

O=c1cc(CO)[nH]nc1CO
inactive: [7] 97 % of control | [8] 101 % of control | dose: 200.0 mg/kg/injection, schedule: Q01DX009 (ip), vehicle: saline 97 % of control | [9] 106 % of control | dose: 400.0 mg/kg/injection, schedule: Q01DX009 (ip), vehicle: saline 97 % of control | [10] 103 % of control

Clc1ccc(-c2oc(-c3ccc(Cl)cc3)c3c2CC=CC3)cc1
inactive: dose: 100.0 mg/kg/injection, schedule: Q04DX003 (ip), vehicle: gum acacia 93 % of control | dose: 200.0 mg/kg/injection, schedule: Q04DX003 (ip), vehicle: gum acacia 106 % of control | dose: 400.0 mg/kg/injection, schedule: Q04DX003 (ip), vehicle: gum acacia 97 % of control
